Test results reported in patent US12263187B2, “Treatment of bone marrow pathologies with polysulfated polysaccharides” (PARADIGM BIOPHARMACEUTICALS LTD, priority 2017, dated 2025).
“Also recorded” adds a separate entry of the source.

Columns and labels:
[1] = test system: Knee OA patients with Bone Marrow Edema Lesions; assay: Example 1: PPS in knee OA patients with Bone Marrow Edema Lesions on MRI (TGA Special Access Scheme); type: in vivo, human; set-up: key to After PPS/BMEL: Severe: (>20 mm); Moderate: (5 mm to 20 mm); Minimal: (<5 mm); Absent; details: for After PPS/BMEL / After PPS/NRS Pain / After PPS/Lysholm Knee Score: 2 mg/kg IM 2x weekly for 3 weeks; for After PPS/NRS Pain / After PPS/Lysholm Knee Score: scored 2 to 4 weeks after last injection; for After PPS/NRS Pain: scale 0-10; for After PPS/Lysholm Knee Score: scale 0-100
Source text: Example 1 is a study of the safety, tolerability and results of patients treated with PPS with Bone Marrow Edema Lesions of the knee and suffering from osteoarthritis under the TGA Special Access Scheme (B). (Approval to use PPS as treatment for the patient was acquired from Department of Health-Therapeutic Goods Administration, Australian Government under the Special Access Scheme (SAS) since the injectable form of PPS was not a registered product in Australia.)
Patients in the study had the following characteristics: • High pain scores • Poor joint function scores • MRI evidence of Bone Marrow Edema Lesions and joint effusions • Kellgren-Lawrence (3-4) OA subjects currently on waiting list for Total Knee Replacement • Failed standard of care including intraarticular injections of corticosteroids • The protocol featured the following: • Treatment: 2× weekly intramuscular injections of 2 mg/kg for 3 weeks (total of 6 injections) • All patients abstained from NSAIDs during PPS treatment • The treatment outcomes of pain and function were scored before and after PPS treatment 2 to 4 weeks after the last PPS injection • All patients had baseline subchondral BML.
Numerical Rating Scale (NRS) is an 11-point scale (0-10). A state of no pain is 0 and the worst pain imaginable is 10.
Lysholm Knee Score is a total score of 0-100 is calculated based on the results from the eight functional components of the Lysholm knee score scale: Limp (5 points), Support (5 points), Locking (15 points), Instability (25 points), Pain (25 points), Swelling (10 points), Stair climbing (10 points), and Squatting (5 points). The total score is assigned to rating categories as follows: 95-100 indicates excellent, 84-94 indicates good, 65-83 indicates fair and <65 indicates poor function.

[2] = test system: person with knee osteoarthritis and subchondral bone marrow edema lesions; assay: Example 2: case report of knee osteoarthritis with subchondral BML; type: in vivo, human
Procedure: The patient was administered a course of Pentosan Polysulphate Sodium (PPS) intramuscularly twice weekly for 3 weeks. […] These MRI interpretations corroborate improved clinical outcome measures ensuing therapeutic intervention with PPS.
A person with a history of arthroscopic partial medial meniscectomy presented with pain of the left knee and was on a waiting list for total knee replacement. […] The BML in the medial femoral condyle measured 11×7×12 mm (CC×transverse×AP) and the medial tibial plateau BML measured 8×8×8 mm (CC×transverse×AP). […] Following patient consent, the pain assessment score was determined by the Numerical Rating Scale (NRS) and functional capacity assessments included the Lysholm knee score. At pre-treatment, the NRS pain score was severe with a score of 8 out of 10 (range 0-10) and the Lysholm Knee score was 37 out of 100 reflecting poor knee function indicated by problems in stair climbing and limping.
Since PPS is a weak anticoagulant with 1/15 the activity of heparin, the patient was monitored for safety by assessments of complete blood count, APTT, prothrombin time, liver function tests, renal function tests and serum calcium prior to commencement of treatment and periodically during treatment with Pentosan Polysulphate Sodium. The clinical status of the patient was checked regularly throughout the course of the treatment and follow up period.
After evaluation, the patient was considered suitable for treatment with Pentosan Polysulphate Sodium (PPS) under the SAS. The patient was administered 2 mg/kg of PPS twice weekly with a minimum of three and a maximum of four days between dosages. Six intramuscular injections were administered into the gluteus maximus muscle over a three-week period (2 injections per week). Three follow-up appointments were made at 10, 24 and 38 days post-completion of injection regimen.

[3] = test system: patient with chronic lower back pain with a Modic Type 1 pattern on MRI; assay: Example 3: case report for chronic low back pain with Modic Type 1 pattern; type: in vivo, human; details: patient one
Procedure: Patient one, a person with chronic lower back pain with a Modic Type 1 pattern on MRI scan of the L3/L4 and L4 L5 region of the spine presented in the clinics with unresolved persistent pain despite current standard of care treatment with Mobic, an NSAID.
The baseline NRS pain score prior to treatment with PPS was a high score of 7. Patient was administered by subcutaneous injection a dose of 150 mg fixed dose of PPS twice weekly for 4 weeks (ie a total of 8 injections). […] During the course of the treatment the patient had abstained from any other therapeutic intervention.

BMEL = assay: Further work: BMEL assessed by MRI after SC PPS twice-weekly for 6 weeks; type: in vivo; details: 2 mg/kg PPS or fixed dose of 150 mg, slow SC injection twice-weekly for 6 weeks
Modic Changes = assay: Further work: Modic Changes assessed by MRI after SC PPS twice-weekly for 6 weeks; type: in vivo; details: 2 mg/kg PPS or fixed dose of 150 mg, slow SC injection twice-weekly for 6 weeks
[4] = test system: Knee OA patients with Bone Marrow Edema Lesions; assay: Example 1: PPS in knee OA patients with Bone Marrow Edema Lesions on MRI (TGA Special Access Scheme); type: in vivo, human; details: standard four week course of PPS
[5] = fraction of the activity of heparin; cited from earlier work

Pentosan Polysulphate Sodium [PPS]
After PPS/BMEL ([1]; patient four, before PPS: Moderate (5 mm to 20 mm)): Minimal ((<5 mm)) | After PPS/NRS Pain ([1]; patient four, before PPS: 4): 1 | After PPS/Lysholm Knee Score ([1]; patient four, before PPS: 73): 90 | After PPS/BMEL ([1]; patient three, before PPS: Severe (>20 mm)): Moderate ((5 mm to 20 mm)) | After PPS/NRS Pain ([1]; patient three, before PPS: 4): 0 | After PPS/Lysholm Knee Score ([1]; patient three, before PPS: 54): 73 | After PPS/BMEL ([1]; patient two, before PPS: Moderate (5 mm to 20 mm)): Absent | After PPS/NRS Pain ([1]; patient two, before PPS: 8): 0 | After PPS/Lysholm Knee Score ([1]; patient two, before PPS: 37): 70 | adverse events ([1]; patients with BMEL and osteoarthritis under TGA SAS(B), 2 mg/kg IM 2x weekly): no adverse events were reported | bone marrow oedema lesions at the medial femoral condyle and medial tibial plateau on MRI ([2]; 2 mg/kg IM twice weekly for 3 weeks (6 injections), MRI five weeks after first injection, pre-treatment BML 11x7x12 mm and 8x8x8 mm): resolution of medial compartment bone oedema; also recorded: complete resolution; also recorded: complete reduction | knee (joint) effusion on MRI ([2]; 2 mg/kg IM twice weekly for 3 weeks, axial imaging at level of suprapatellar pouch, five weeks after first injection): reduction in size of knee effusion; also recorded: complete resolution; also recorded: marked reduction; also recorded: reduction in the size | adverse events ([2]; 2 mg/kg IM twice weekly for 3 weeks, during treatment and follow up period): did not present with any drug-related or nondrug-related adverse response; also recorded: did not report any adverse effects; also recorded: no post-treatment adverse events | improvement of the Lysholm Knee score ([2]; 2 mg/kg IM twice weekly for 3 weeks, four weeks after the last injection, 37 to 65): 43% | Lysholm Knee score post-treatment ([2]; 2 mg/kg IM twice weekly for 3 weeks, four weeks after the last injection, scale 0-100, pre-treatment score 37): 65 | NRS pain score post-treatment ([2]; 2 mg/kg IM twice weekly for 3 weeks, scale 0-10, pre-treatment score 8): 0 | pain soon after the 4th injection ([3]; 150 mg fixed dose SC twice weekly): improvement in pain | adverse events ([3]; 150 mg fixed dose SC twice weekly for 4 weeks, during and after treatment): No adverse events | BMEL volume as assessed by magnetic resonance imaging (BMEL): consistent BMEL volume reduction | Modic Changes as assessed by magnetic resonance imaging (Modic Changes): consistent resolution | BMEL on MRI [4]: clearly visible BMEL reduction | pain and mobility scores [4]: improved | anticoagulant activity relative to heparin [5]: 1/15
